Article PMC7922564, “Molecular Insights into an Antibiotic Enhancer Action of New Morpholine-Containing 5-Arylideneimidazolones in the Fight against MDR Bacteria” (International Journal of Molecular Sciences, 2021)
Like-named read-outs stand apart in the source and are kept apart here.

Columns and labels:
[1] = test system: K. aerogenes CM-64 (overexpression of AcrAB-TolC); assay: MIC of compounds, K. aerogenes CM-64; format: cell-based; details: Klebsiella aerogenes, read-out: Minimal Inhibitory Concentration (MIC)
Excerpt: A subset of compounds, namely 7, 12–16, 19, 20, was also examined for the potential to increase the effectiveness of the antibiotics chloramphenicol, erythromycin, doxycycline, and the fluoroquinolone antibiotic norfloxacin, which all are substrates for AcrAB-TolC in K. aerogenes. In addition to strain Ea-289, the adjuvant-like effect of the compounds was investigated in strain CM-64, which also overexpresses the AcrAB-TolC efflux pump, although it has no changes in porin content, and in the Ea-289 derivatives, i.e., Ea-294 and Ea-308, which are devoid of AcrAB (Table S17, Supplementary).
(§1) Determination of MIC values, i.e., intrinsic antibacterial activity, of products and antibiotics (oxacillin, ampicillin, vancomycin, ciprofloxacin, and erythromycin) in the presence and absence of compounds tested was conducted by the use of a standard 2-fold microdilution method in cation-adjusted Mueller Hinton broth following the Clinical and Laboratory Standards Institute (CLSI) guidelines. The MIC values were detected using an Infinite M200 pro Tecan microplate reader (Tecan® France, SA-Lyon, France). MIC determinations were conducted in 96-well microtiter plates and repeated 3–4 times.
MIC values of 5-arylideneimidazolone derivatives were determined following CLSI recommendations as in the methods described for S. aureus (Section 3.3.1).

[2] = test system: K. aerogenes Ea-294, Ea-308 (devoid of AcrAB); assay: MIC of compounds, K. aerogenes Ea-294, Ea-308; format: cell-based, Klebsiella aerogenes; details: ratio of compound MICs
S. aureus ATCC 25923 = assay: MIC determination (microdilution), S. aureus ATCC 25923; format: cell-based, Staphylococcus aureus; details: Staphylococcus aureus
Description: as §1
(§2) Initially, MICs of a series of imidazolone derivatives were assessed against susceptible (reference) and MDR strains of staphylococci. Next, MIC values of the aforementioned antibiotics were determined in the absence and presence of imidazolone derivatives to assess the chemosensitizing effect of these compounds. […] 5-arylideneimidazolones and 5-arylidenethiazolones, which precipitated after addition to bacterial suspension in MH II medium, were tested at the highest concentrations at which precipitation was not observed. […] Antibacterial activity of compounds and antibiotics ampicillin, vancomycin, ciprofloxacin, and erythromycin was recorded as the lowest concentration of molecules able to inhibit bacterial growth after 18 h incubation at 37 °C. The incubation of bacterial strains exposed to oxacillin paired with compounds tested was conducted at 35 °C and extended to 24 h due to frequent occurrence of heterogeneity among MRSA strains. The results are presented as activity gain (A) parameter which was calculated as ratio of MIC of a certain antibiotic (MICAnt) to its MICAnt+Comp, observed in combination with a tested compound (7, 12–16, 19, or 20; Equation (1)). (1) A=(MICAnt/MICAnt+Comp)

S. aureus R45-CC45 [3] = assay: MIC reduction assay (antibiotic adjuvant), S. aureus R45-CC45; format: cell-based, Staphylococcus aureus; details: ampicillin; for A (activity gain): range over repetitions
Excerpt: (§3) The adjuvant properties of compounds 14–16 in S. aureus clinical isolates were next tested in combination with oxacillin and the penicillinase-susceptible β-lactam antibiotic, ampicillin. The second β-lactam antibiotic was chosen based on its vulnerability to enzymatic hydrolysis, another important resistance mechanism in S. aureus against penicillin. Therefore, the results of the MIC reduction assay obtained on the activity of arylideneimidazolones combined with oxacillin and ampicillin, respectively, might provide further insights into the possible mechanism of action of the compounds. Complete results are presented in Supplementary (Tables S4 and S5), while condensed in Figure 6, in the case of desired activity noted. […] One possible explanation for the lack of adjuvant activity of compounds in some of the strains selected for this study might be that these strains express PBP2a only when induced by the antibiotic, while others, for which potentiating activity of compounds was observed, produce this protein in high levels straight away.
as §1
as §2, with “The incubation of bacterial strains exposed to oxacillin paired with compounds tested was conducted at 35 °C and extended to 24 h due to frequent occurrence of heterogeneity among MRSA strains.” left out, “(1) A=(MICAnt/MICAnt+Comp)” left out

S. aureus R46-CC22 [4] = assay: MIC reduction assay (antibiotic adjuvant), S. aureus R46-CC22; format: cell-based, Staphylococcus aureus
Excerpt: as §3, §1, §2

S. aureus Mu50 = assay: MIC reduction assay (antibiotic adjuvant), S. aureus Mu50; format: cell-based, Staphylococcus aureus; parameters: key: A = MIC of antibiotic alone / MIC with compound;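 also: compound at no more than one quarter of its own MIC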
Excerpt: as §3, §1, §2

S. aureus 5328 [5] = assay: MIC of compounds, S. aureus 5328; format: cell-based; details: Staphylococcus aureus; 5328 (MRSA)
Description: (§4) Compounds 14–16 were tested further for their adjuvant-like effect with a set of ten additional S. aureus isolates. Firstly, MIC values of the molecules were evaluated in two clinical MSSA isolates (MM-O058, MM-N072), seven MRSA (USA300 LAC, 5328, LG-N017, MM-O021, R45-CC45, R46-CC22, COL) and one VISA strain (Mu50). Detailed results are presented in the Supplementary section (Table S3).
as §1
as §2, with “The incubation of bacterial strains exposed to oxacillin paired with compounds tested was conducted at 35 °C and extended to 24 h due to frequent occurrence of heterogeneity among MRSA strains.” left out, “(1) A=(MICAnt/MICAnt+Comp)” left out

S. aureus 5328 [6] = assay: MIC reduction assay (antibiotic adjuvant), S. aureus 5328; format: cell-based, Staphylococcus aureus
Excerpt: as §3, §1, §2

S. aureus MM-O058 [7] = assay: MIC reduction assay (antibiotic adjuvant), S. aureus MM-O058; format: cell-based, Staphylococcus aureus
Excerpt: as §3, §1, §2

S. aureus COL [8] = assay: MIC of compounds, S. aureus COL; format: cell-based; details: Staphylococcus aureus; COL (MRSA)
Description: as §4, §1
as §2, with “The incubation of bacterial strains exposed to oxacillin paired with compounds tested was conducted at 35 °C and extended to 24 h due to frequent occurrence of heterogeneity among MRSA strains.” left out, “(1) A=(MICAnt/MICAnt+Comp)” left out

S. aureus USA300 LAC = assay: MIC of compounds, S. aureus USA300 LAC; format: cell-based; details: Staphylococcus aureus
Description: as §4, §1
as §2, with “The incubation of bacterial strains exposed to oxacillin paired with compounds tested was conducted at 35 °C and extended to 24 h due to frequent occurrence of heterogeneity among MRSA strains.” left out, “(1) A=(MICAnt/MICAnt+Comp)” left out

S. aureus MM-O021 = assay: MIC of compounds, S. aureus MM-O021; format: cell-based; details: Staphylococcus aureus; MM-O021 (MRSA)
Description: as §4, §1
as §2, with “The incubation of bacterial strains exposed to oxacillin paired with compounds tested was conducted at 35 °C and extended to 24 h due to frequent occurrence of heterogeneity among MRSA strains.” left out, “(1) A=(MICAnt/MICAnt+Comp)” left out

S. aureus COL [9] = assay: MIC reduction assay (antibiotic adjuvant), S. aureus COL; format: cell-based, Staphylococcus aureus; details: ampicillin
Excerpt: as §3, with “away. […]” for “away.”
(§5) Initially, MICs of a series of imidazolone derivatives were assessed against susceptible (reference) and MDR strains of staphylococci. Next, MIC values of the aforementioned antibiotics were determined in the absence and presence of imidazolone derivatives to assess the chemosensitizing effect of these compounds. […] Antibacterial activity of compounds and antibiotics ampicillin, vancomycin, ciprofloxacin, and erythromycin was recorded as the lowest concentration of molecules able to inhibit bacterial growth after 18 h incubation at 37 °C. […] The results are presented as activity gain (A) parameter which was calculated as ratio of MIC of a certain antibiotic (MICAnt) to its MICAnt+Comp, observed in combination with a tested compound (7, 12–16, 19, or 20; Equation (1)). […]

S. aureus MM-N072 [10] = assay: MIC reduction assay (antibiotic adjuvant), S. aureus MM-N072; format: cell-based, Staphylococcus aureus
Excerpt: as §3, §1, §2

S. aureus R45-CC45 [11] = assay: MIC of compounds, S. aureus R45-CC45; format: cell-based; details: Staphylococcus aureus, read-out: MIC value of compounds
Description: as §4, §1
as §5, with “compounds. […] 5-arylideneimidazolones and 5-arylidenethiazolones, which precipitated after addition to bacterial suspension in MH II medium, were tested at the highest concentrations at which precipitation was not observed.” for “compounds.”

S. aureus MM-O058 [12] = assay: MIC of compounds, S. aureus MM-O058; format: cell-based; details: Staphylococcus aureus; MM-O058 (MSSA)
Description: as §4, §1
as §5, with “compounds. […] 5-arylideneimidazolones and 5-arylidenethiazolones, which precipitated after addition to bacterial suspension in MH II medium, were tested at the highest concentrations at which precipitation was not observed.” for “compounds.”

S. aureus MM-N072 [13] = assay: MIC of compounds, S. aureus MM-N072; format: cell-based; details: Staphylococcus aureus; MM-N072 (MSSA)
Description: as §4, §1
as §5, with “compounds. […] 5-arylideneimidazolones and 5-arylidenethiazolones, which precipitated after addition to bacterial suspension in MH II medium, were tested at the highest concentrations at which precipitation was not observed.” for “compounds.”

S. aureus R46-CC22 [14] = assay: MIC of compounds, S. aureus R46-CC22; format: cell-based; details: Staphylococcus aureus; R46-CC22 (MRSA)
Description: as §4, §1
as §5, with “compounds. […] 5-arylideneimidazolones and 5-arylidenethiazolones, which precipitated after addition to bacterial suspension in MH II medium, were tested at the highest concentrations at which precipitation was not observed.” for “compounds.”

[15] = ATCC25923, unstarred values of column MIC value/no precipitation, read-out: MIC value
[16] = USA300 LAC (MRSA), read-out: MIC value of compounds

Structure (SMILES)	MIC [1]	more effective in strains Ea-294 and Ea-298 when compared to the parental strain Ea-289 [2]	MIC (S. aureus ATCC 25923; [15])	A (activity gain) (S. aureus R45-CC45 [3])	A (activity gain) (S. aureus R46-CC22 [4]; ampicillin)	A (activity gain) (S. aureus R46-CC22 [4]; ciprofloxacin)	A (activity gain) (S. aureus Mu50; ampicillin)	A (activity gain) (S. aureus Mu50; ciprofloxacin)	A (activity gain) (S. aureus Mu50; erythromycin)	A (activity gain) (S. aureus Mu50; vancomycin)	MIC (S. aureus 5328 [5])	A (activity gain) (S. aureus 5328 [6]; ampicillin)	A (activity gain) (S. aureus 5328 [6]; erythromycin, S. aureus 53284)	A (activity gain) (S. aureus MM-O058 [7]; ampicillin)	A (activity gain) (S. aureus MM-O058 [7]; erythromycin)	MIC (S. aureus COL [8])	MIC (S. aureus MM-O021)	A (activity gain) (S. aureus COL [9])	A (activity gain) (S. aureus MM-N072 [10]; ampicillin)	A (activity gain) (S. aureus MM-N072 [10]; erythromycin)	other results
NC1=N/C(=C\c2ccc3c(c2)Cc2ccccc2-3)C(=O)N1CCCN1CCOCC1 [Compound 19]	> 2000 µM	≥ 4 fold	31.2 to 250 µM	–	–	–	–	–	–	–	–	–	–	–	–	–	–	–	–	–	–
NC1=N/C(=C\c2cccc(Oc3ccccc3)c2)C(=O)N1CCCN1CCOCC1 [Compound 16]	> 2000 µM	≥ 4 fold	31.2 to 250 µM	1	1	1	2	1	1	1	250 µM	1	1	1	1	250 µM	250 µM	1	1	1	MIC (S. aureus USA300 LAC; [16]): 250 µM; MIC (S. aureus R45-CC45 [11]; R45-CC45 (MRSA)): 250 µM; MIC (S. aureus MM-O058 [12]): 250 µM; MIC (S. aureus MM-N072 [13]): 250 µM; MIC (S. aureus R46-CC22 [14]): 250 to 500 µM
NC1=N/C(=C\c2ccc(-c3ccccc3)cc2)C(=O)N1CCCN1CCOCC1 [Compound 15]	> 2000 µM	≥ 4 fold	31.2 to 250 µM	4-8	2	1	2	1	1	1	250 µM	2	1	1	1	250 µM	250 to 500 µM	1	1	1	A (AMP), gain of activity, arithmetic mean (S. aureus R45-CC45 [3]; arithmetic mean of 3-4 repetitions): 6; MIC (S. aureus USA300 LAC; MRSA / USA300, read-out: MIC value of compounds): 125 µM; MIC (S. aureus ATCC 25923; ATCC25923, read-out: MIC value): 125 µM; MIC (S. aureus R45-CC45 [11]; MRSA): 125 to 250 µM; MIC (S. aureus MM-O058 [12]): 250 µM; MIC (S. aureus MM-N072 [13]): 250 µM; MIC (S. aureus R46-CC22 [14]): 250 µM
NC1=N/C(=C\c2ccc(-c3ccccc3)cc2)C(=O)N1CCN1CCOCC1 [Compound 14]	> 2000 µM	–	31.2 to 250 µM	2-4	2	1	1	1	1	1	≥ 500 µM	2	1	1	1	≥ 500 µM	≥ 500 µM	1	1	1	MIC (S. aureus USA300 LAC; [16]): ≥ 500 µM; MIC (S. aureus R45-CC45 [11]; R45-CC45 (MRSA)): ≥ 500 µM; MIC (S. aureus MM-O058 [12]): ≥ 1000 µM; MIC (S. aureus MM-N072 [13]): ≥ 500 µM; MIC (S. aureus R46-CC22 [14]): ≥ 500 µM
